Assay results: US10167262B2, “Herbicidal substituted 3-arylpyrazoles” (FMC CORPORATION, priority 2014, dated 2019)
Where two headings read alike, the source gives them in different places.

Columns and labels:
Assay in all cases: Test C pre-/postemergence greenhouse test, plant response rating 0-100
Format in all cases: in vivo
[1] = test system: large (Lg) crabgrass (Digitaria sanguinalis); conditions: Digitaria sanguinalis; for pest or weed control at 125 g/ha: 125 g ai/ha; for pest or weed control at 250 g/ha: 250 g ai/ha
From the text: (§1) Seeds of plant species selected from blackgrass (Alopecurus myosuroides), Italian ryegrass (Lolium multiflorum), winter wheat (Triticum aestivum), galium (catchweed bedstraw, Galium aparine), corn (Zea mays), large (Lg) crabgrass (Digitaria sanguinalis), giant foxtail (Setaria faberii), johnsongrass (Sorghum halepense), lambsquarters (Chenopodium album), morningglory (Ipomoea coccinea), yellow nutsedge (Cyperus esculentus), pigweed (Amaranthus retroflexus), ragweed (common ragweed, Ambrosia elatior), soybean (Glycine max), barnyardgrass (Echinochloa crus-galli), oilseed rape (Brassica napus), waterhemp (common waterhemp, Amaranthus rudis), and velvetleaf (Abutilon theophrasti) were planted into a blend of loam soil and sand and treated preemergence with test chemicals formulated in a non-phytotoxic solvent mixture which included a surfactant.
(§2) At the same time, plants selected from these crop and weed species and also winter barley (Hordeum vulgare), bermudagrass (Cynodon dactylon), downy bromegrass (Bromus tectorum), canarygrass (Phalaris minor), cocklebur (common cocklebur, Xanthium strumarium), woolly cupgrass (Eriochloa villosa), deadnettle (henbit deadnettle, Lamium amplexicaule), green foxtail (Setaria viridis), goosegrass (Eleusine indica), surinam grass (Brachiaria decumbens), windgrass (Apera spica-venti), chickweed (common chickweed, Stellaria media), kochia (Kochia scoparia), and wild oat (Avena fatua), were planted in pots containing Redi-Earth® planting medium (Scotts Company, 14111 Scottslawn Road, Marysville, Ohio 43041) comprising spaghnum peat moss, vermiculite, wetting agent and starter nutrients and treated with postemergence applications of test chemicals formulated in the same manner. Plants ranged in height from 2 to 18 cm (1- to 4-leaf stage) for postemergence treatments. Treated plants and controls were maintained in a greenhouse for 13 to 15 days, after which time all species were compared to controls and visually evaluated. Plant response ratings, summarized in Table C, are based on a scale of 0 to 100 where 0 is no effect and 100 is complete control. A dash (-) response means no test result.

[2] = test system: morningglory (Ipomoea coccinea); conditions: Ipomoea; for pest or weed control at 62 g/ha: 62 g ai/ha; for pest or weed control at 125 g/ha: 125 g ai/ha; for pest or weed control at 250 g/ha: 250 g ai/ha
From the text: as §1, §2

[3] = test system: pigweed (Amaranthus retroflexus); conditions: Amaranthus retroflexus; for pest or weed control at 62 g/ha: 62 g ai/ha; for pest or weed control at 250 g/ha: 250 g ai/ha
From the text: as §1, §2

soybean (Glycine max) = conditions: Glycine max; for plant injury at 62 g/ha: 62 g ai/ha; for plant injury at 125 g/ha: 125 g ai/ha; for plant injury at 250 g/ha: 250 g ai/ha
From the text: as §1, §2

[4] = test system: velvetleaf (Abutilon theophrasti); conditions: Abutilon theophrasti; for pest or weed control at 62 g/ha: 62 g ai/ha; for pest or weed control at 125 g/ha: 125 g ai/ha; for pest or weed control at 250 g/ha: 250 g ai/ha
From the text: as §1, §2

[5] = test system: winter wheat (Triticum aestivum); conditions: Triticum aestivum; for plant injury at 62 g/ha: 62 g ai/ha; for plant injury at 125 g/ha: 125 g ai/ha; for plant injury at 250 g/ha: 250 g ai/ha
From the text: as §1, §2

[6] = test system: yellow nutsedge (Cyperus esculentus); conditions: Cyperus; for pest or weed control at 62 g/ha: 62 g ai/ha; for pest or weed control at 125 g/ha: 125 g ai/ha; for pest or weed control at 250 g/ha: 250 g ai/ha
From the text: as §1, §2

[7] = post-emergence, Postemergence, scale 0 to 100
[8] = pre-emergence, Preemergence, 500 g ai/ha
[9] = post-emergence, Postemergence, read-out: Plant response rating (0 to 100), Morningglory
[10] = pre-emergence, Preemergence, read-out: Plant response rating, Morningglory
[11] = post-emergence, Postemergence, read-out: Plant response rating (0 to 100), Soybean
[12] = pre-emergence, Preemergence, read-out: Plant response rating, Soybean
[13] = post-emergence, Postemergence, read-out: Plant response rating (0 to 100), Velvetleaf
[14] = pre-emergence, Preemergence, read-out: Plant response rating, Velvetleaf
[15] = post-emergence, Postemergence, read-out: Plant response rating (0 to 100), Wheat
[16] = pre-emergence, Preemergence, read-out: Plant response rating, Wheat
[17] = post-emergence, Postemergence, read-out: Plant response rating (0 to 100), Nutsedge, Yellow
[18] = pre-emergence, Preemergence, read-out: Plant response rating, Nutsedge, Yellow

Cn1cc(C(=O)c2ccccc2)c(-c2cc(Cl)cc(Cl)c2)n1 [Compound 54, [3-(3,5-dichlorophenyl)-1-methyl-1H-pyrazol-4-yl]phenylmethanone]
55%: pest or weed control at 125 g/ha [4, 14]
60%: pest or weed control at 250 g/ha ([4]; pre-emergence, Preemergence)
30%: pest or weed control at 500 g/ha [1, 8]
90%: pest or weed control at 62 g/ha ([3]; pre-emergence, Preemergence, read-out: Plant response rating, Pigweed)
15%: pest or weed control at 250 g/ha ([2]; pre-emergence, Preemergence)
100%: pest or weed control at 125 g/ha ([3]; post-emergence, Postemergence, 125 g ai/ha, read-out: Plant response rating (0 to 100), Pigweed) | pest or weed control at 250 g/ha [3, 7] | pest or weed control at 250 g/ha [4, 7]
40%: pest or weed control at 500 g/ha [2, 8]
45%: pest or weed control at 62 g/ha [4, 14]
85%: pest or weed control at 125 g/ha [4, 13]
25%: pest or weed control at 500 g/ha [6, 8]
95%: pest or weed control at 250 g/ha ([3]; pre-emergence, Preemergence) | pest or weed control at 500 g/ha [3, 8]
98%: pest or weed control at 62 g/ha ([3]; post-emergence, Postemergence, read-out: Plant response rating (0 to 100), Pigweed)
80%: pest or weed control at 62 g/ha [4, 13] | pest or weed control at 500 g/ha [4, 8]
0%: pest or weed control at 125 g/ha ([1]; post-emergence, Postemergence, read-out: Plant response rating (0 to 100), Crabgrass, Large) | pest or weed control at 250 g/ha [1, 7] | pest or weed control at 62 g/ha ([1]; pre-emergence, Preemergence, 62 g ai/ha, read-out: Plant response rating, Crabgrass, Large) | pest or weed control at 125 g/ha ([1]; pre-emergence, Preemergence, read-out: Plant response rating, Crabgrass, Large) | pest or weed control at 250 g/ha ([1]; pre-emergence, Preemergence) | pest or weed control at 62 g/ha [2, 9] | pest or weed control at 125 g/ha [2, 9] | pest or weed control at 250 g/ha [2, 7] | pest or weed control at 62 g/ha [2, 10] | pest or weed control at 125 g/ha [2, 10] | plant injury at 62 g/ha (soybean (Glycine max); [11]) | plant injury at 125 g/ha (soybean (Glycine max); [11]) | plant injury at 250 g/ha (soybean (Glycine max); [7]) | plant injury at 62 g/ha (soybean (Glycine max); [12]) | plant injury at 125 g/ha (soybean (Glycine max); [12]) | plant injury at 250 g/ha (soybean (Glycine max); pre-emergence, Preemergence) | plant injury at 500 g/ha (soybean (Glycine max); [8]) | plant injury at 62 g/ha [5, 15] | plant injury at 125 g/ha [5, 15] | plant injury at 250 g/ha [5, 7] | plant injury at 62 g/ha [5, 16] | plant injury at 125 g/ha [5, 16] | plant injury at 250 g/ha ([5]; pre-emergence, Preemergence) | plant injury at 500 g/ha [5, 8] | pest or weed control at 62 g/ha [6, 17] | pest or weed control at 125 g/ha [6, 17] | pest or weed control at 250 g/ha [6, 7] | pest or weed control at 62 g/ha [6, 18] | pest or weed control at 125 g/ha [6, 18] | pest or weed control at 250 g/ha ([6]; pre-emergence, Preemergence)
